Our source for the half-life values is patent US20230331691A1, “TREPROSTINIL DERIVATIVE COMPOUNDS AND METHODS OF USING SAME” (CORSAIR PHARMA, INC., priority 2013, published 2023).

Common to all, as to type: in vitro ADME
The nature of data set [1]: Human liver microsomal stability assay (Test 1). The note with it: human liver microsomes, 0.5 uM test compound, 37° C., up to 45 minutes, pH 7.4, NADPH generating system; read-out: Test 1 T½. The method, then:
(§1) (Test 1) Human liver microsomal stability assay was conducted by incubating 0.5 uM test compounds at 37° C. for up to 45 minutes in 50 mM of potassium phosphate buffer (pH 7.4) containing 0.5 mg of microsomal protein and 50 µL of NADPH generating system (7.8 mg of glucose 6-phosphate, 1.7 mg of NADPH and 6 U of glucose 6-phosphate dehydrogenase per mL in 2% w/v of sodium bicarbonate). At 0, 5, 15, 30 and 45 min., an aliquot was taken, quenched with internal standard containing stop solution. No co-factor controls at 45 minutes were also prepared. After incubation, the samples were analyzed by LC-MS/MS. Peak area ratios of analyte to internal standard were used to calculate the intrinsic clearance. The intrinsic clearance (CLint) was determined from the first order elimination constant by non-linear regression. Formation of the active drug Compound A over the time course was also monitored by LC-MS/MS analysis.
On the technique in general: Liver microsomes are a subcellular fraction often used to study metabolism.

The nature of data set [2]: Human plasma stability assay (Test 2). The note with it: heparinated human plasma, 0.5 uM test compound, 37° C., up to 120 minutes; read-out: Test 2 T½. Here is the method:
(Test 2) Human plasma stability assay was conducted by incubating 0.5 uM test compounds at 37° C. for up to 120 minutes in heparinated human plasma. At 0, 5, 15, 30, 60 and 120 […] min., an aliquot was taken, quenched with internal standard containing stop solution. After incubation, the samples were analyzed by LC-MS/MS. Peak area ratios of analyte to internal standard were used to calculate the half-life. Formation of the active drug Compound A over the time course was also monitored by LC-MS/MS analysis.

Data set [3] is described as follows: Human skin homogenate stability assay (Test 3). The note with it: 0.5 uM test compound, 37° C., up to 45 minutes, pH 7.4, NADPH generating system, read-out: Test 3 T½. The method, then: as §1, with “3)” for “1)”, “skin homogenate” for “liver microsomal”, “conducted in a similar way as the human liver microsomal stability assay,” for “conducted”, “human skin homogenate” for “microsomal”

Each structure is given as a SMILES string. A value given as a limit tells only on which side of the number the result lay.

In the case of `CCCCC[C@H](O)CC[C@@H]1[C@H]2Cc3cccc(OCC(=O)OCC4CC4)c3C[C@H]2C[C@H]1O` [Compound 1, [2-Hydroxy-1-(3-hydroxy-octyl)-2,3,3a,4,9,9a-hexahydro-1H-cyclopenta[b]naphthalen-5-yloxy]-acetic acid cyclopropylmethyl ester], the half-life at 0.5 uM in data set [1] and in data set [2] was < 15 min in each case.

For the molecule `CCCCC[C@H](O)CC[C@@H]1[C@H]2Cc3cccc(OCC(=O)OCCCF)c3C[C@H]2C[C@H]1O` [Compound 4, [2-Hydroxy-1-(3-hydroxy-octyl)-2,3,3a,4,9,9a-hexahydro-1H-cyclopenta[b]naphthalen-5-yloxy]-acetic acid 3-fluoro-propyl ester], the half-life at 0.5 uM in data set [1] and in data set [2] was < 15 min in each case.

Take `CCCCC[C@H](O)CC[C@@H]1[C@H]2Cc3cccc(OCC(=O)OC4CCOC4)c3C[C@H]2C[C@H]1O` (stereo partly shown) [Compound 5, [2-Hydroxy-1-(3-hydroxy-octyl)-2,3,3a,4,9,9a-hexahydro-1H-cyclopenta[b]naphthalen-5-yloxy]-acetic acid tetrahydro-furan-3-yl ester]: the half-life at 0.5 uM in data set [1] and in data set [2] was < 15 min in each case.

Take `CCCCC[C@H](O)CC[C@@H]1[C@H]2Cc3cccc(OCC(=O)O[C@H](C)C(=O)OC)c3C[C@H]2C[C@H]1O` [Compound 6, 2-{2-[2-Hydroxy-1-(3-hydroxy-octyl)-2,3,3a,4,9,9a-hexahydro-1H-cyclopenta[b]naphthalen-5-yloxy]-acetoxy}-propionic acid methyl ester]: the half-life at 0.5 uM in data set [1] and in data set [2] was < 15 min each time.

Consider `CCCCC[C@H](O)CC[C@@H]1[C@H]2Cc3cccc(OCC(=O)NCCN)c3C[C@H]2C[C@H]1O` [Compound 8, N-(2-Amino-ethyl)-2-[2-hydroxy-1-(3-hydroxy-octyl)-2,3,3a,4,9,9a-hexahydro-1H-cyclopenta[b]naphthalen-5-yloxy]-acetamide], for which the half-life at 0.5 uM in data set [1] was 31 to 60 min.

Consider `CCCCC[C@H](O)CC[C@@H]1[C@H]2Cc3cccc(OCC(=O)OCCO)c3C[C@H]2C[C@H]1O` [Compound 9, [2-Hydroxy-1-(3-hydroxy-octyl)-2,3,3a,4,9,9a-hexahydro-1H-cyclopenta[b]naphthalen-5-yloxy]-acetic acid 2-hydroxy-ethyl ester], for which the half-life at 0.5 uM in data set [1] was < 15 min.

`CCCCC[C@H](O)CC[C@@H]1[C@H]2Cc3cccc(OCC(=O)OCCOC)c3C[C@H]2C[C@H]1O` [Compound 10, [2-Hydroxy-1-(3-hydroxy-octyl)-2,3,3a,4,9,9a-hexahydro-1H-cyclopenta[b]naphthalen-5-yloxy]-acetic acid 2-methoxy-ethyl ester]: in data set [1], the half-life at 0.5 uM is < 15 min.

`CCCCC[C@H](O)CC[C@@H]1[C@H]2Cc3cccc(OCC(=O)NCCCO)c3C[C@H]2C[C@H]1O` [Compound 11, 2-[2-Hydroxy-1-(3-hydroxy-octyl)-2,3,3a,4,9,9a-hexahydro-1H-cyclopenta[b]naphthalen-5-yloxy]-N-(3-hydroxy-propyl)-acetamide]: the half-life at 0.5 uM in data set [1] is < 15 min; in data set [2] it was > 60 min.

With `CCCCC[C@H](O)CC[C@@H]1[C@H]2Cc3cccc(OCC(=O)NCC(=O)OC)c3C[C@H]2C[C@H]1O` [Compound 12, {2-[2-Hydroxy-1-(3-hydroxy-octyl)-2,3,3a,4,9,9a-hexahydro-1H-cyclopenta[b]naphthalen-5-yloxy]-acetylamino}-acetic acid methyl ester], the half-life at 0.5 uM is < 15 min in data set [1] and > 60 min in data set [2].

Consider `CCCCC[C@H](O)CC[C@@H]1[C@H]2Cc3cccc(OCC(=O)OC)c3C[C@H]2C[C@H]1O` [Compound 15, [2-Hydroxy-1-(3-hydroxy-octyl)-2,3,3a,4,9,9a-hexahydro-1H-cyclopenta[b]naphthalen-5-yloxy]-acetic acid methyl ester], for which the half-life at 0.5 uM in data set [3], in data set [1] and in data set [2] was < 15 min in each case.

As to `CCCCC[C@H](O)CC[C@@H]1[C@H]2Cc3cccc(OCC(=O)OCC(C)(C)C)c3C[C@H]2C[C@H]1O` [Compound 16, [2-Hydroxy-1-(3-hydroxy-octyl)-2,3,3a,4,9,9a-hexahydro-1H-cyclopenta[b]naphthalen-5-yloxy]-acetic acid 2,2-dimethyl-propyl ester], the half-life at 0.5 uM in data set [3] was 15 to 30 min; in data set [1], < 15 min; in data set [2] it was 15 to 30 min.

For the molecule `CCCCC[C@H](O)CC[C@@H]1[C@H]2Cc3cccc(OCC(=O)OC(C)C(C)C)c3C[C@H]2C[C@H]1O` (stereo partly shown) [Compound 17, [2-Hydroxy-1-(3-hydroxy-octyl)-2,3,3a,4,9,9a-hexahydro-1H-cyclopenta[b]naphthalen-5-yloxy]-acetic acid 1,2-dimethyl-propyl ester], the half-life at 0.5 uM in data set [3] was 15 to 30 min; in data set [1] it was < 15 min; in data set [2], 31 to 60 min.

Regarding `CCCCC[C@H](O)CC[C@@H]1[C@H]2Cc3cccc(OCC(=O)OC(C)C(C)(C)C)c3C[C@H]2C[C@H]1O` (stereo partly shown) [Compound 18, [2-Hydroxy-1-(3-hydroxy-octyl)-2,3,3a,4,9,9a-hexahydro-1H-cyclopenta[b]naphthalen-5-yloxy]-acetic acid 1,2,2-trimethyl-propyl ester], the half-life at 0.5 uM in data set [3] is > 60 min; in data set [1] it was < 15 min; in data set [2], > 60 min.

With `CCCCC[C@H](O)CC[C@@H]1[C@H]2Cc3cccc(OCC(=O)OC4CC5CCC4C5)c3C[C@H]2C[C@H]1O` (stereo partly shown) [Compound 19, [2-Hydroxy-1-(3-hydroxy-octyl)-2,3,3a,4,9,9a-hexahydro-1H-cyclopenta[b]naphthalen-5-yloxy]-acetic acid bicyclo[2.2.1]hept-2-yl ester], the values for the half-life at 0.5 uM in data set [3], in data set [1] and in data set [2] were 15 to 30 min, < 15 min and 31 to 60 min, respectively.

With `CCCCC[C@H](O)CC[C@@H]1[C@H]2Cc3cccc(OCC(=O)NCC(F)(F)C(F)(F)F)c3C[C@H]2C[C@H]1O` [Compound 21, 2-[2-Hydroxy-1-(3-hydroxy-octyl)-2,3,3a,4,9,9a-hexahydro-1 H-cyclopenta[b]naphthalen-5-yloxy]-N-(2,2,3,3,3-pentafluoro-propyl)-acetamide], the half-life at 0.5 uM in data set [1] was < 15 min; in data set [2], > 60 min.

For the molecule `CCCCC[C@H](O)CC[C@@H]1[C@H]2Cc3cccc(OCC(=O)OC)c3C[C@H]2C[C@H]1OC(=O)CC(C)C` [Compound 23, 3-Methyl-butyric acid 1-(3-hydroxy-octyl)-5-methoxycarbonylmethoxy-2,3,3a,4,9,9a-hexahydro-1H-cyclopenta[b]naphthalen-2-yl ester], the half-life at 0.5 uM is < 15 min in data set [1] and > 60 min in data set [2].

In the case of `CCCCC[C@H](O)CC[C@@H]1[C@H]2Cc3cccc(OCC(=O)OC)c3C[C@H]2C[C@H]1OC(=O)C1CC1` [Compound 24, Cyclopropanecarboxylic acid 1-(3-hydroxy-octyl)-5-methoxycarbonylmethoxy-2,3,3a,4,9,9a-hexahydro-1H-cyclopenta[b]naphthalen-2-yl ester], the half-life at 0.5 uM is < 15 min in data set [1] and > 60 min in data set [2].

For `CCCCC[C@H](O)CC[C@@H]1[C@H]2Cc3cccc(OCC(=O)OC)c3C[C@H]2C[C@H]1OC(=O)CCC(=O)OCC` [Compound 27, Succinic acid ethyl ester 1-(3-hydroxy-octyl)-5-methoxycarbonylmethoxy-2,3,3a,4,9,9a-hexahydro-1H-cyclopenta[b]naphthalen-2-yl ester], the half-life at 0.5 uM is < 15 min in data set [1] and > 60 min in data set [2].

On to `CCCCC[C@H](O)CC[C@@H]1[C@H]2Cc3cccc(OCC(=O)OC(C)(C)C)c3C[C@H]2C[C@H]1O` [Compound 28, [2-Hydroxy-1-(3-hydroxy-octyl)-2,3,3a,4,9,9a-hexahydro-1H-cyclopenta[b]naphthalen-5-yloxy]-acetic acid tert-butyl ester], for which the half-life at 0.5 uM was < 15 min in data set [1] and 15 to 30 min in data set [2].
